US7560121B1 (LTS Lohmann Therapie-Systeme AG, priority 1999, dated 2009)
Counter-ions that a name gives are not always drawn.

Assays:
[1] = Solubility of fluphenazine dihydrochloride in poly(meth)acrylate pressure-sensitive adhesives; format: physicochemical
Text: Addition of Eudragit E100 (Röhm Pharma GmbH) was therefore provided for in all cases. This poly-(meth)acrylate has trialkylamino groups in its lateral chain and is capable of functioning as an ion-exchange resin. In this way, the chloride ions of the fluphenazine dihydrochloride are bonded to Eudragit E100 while protons are accepted simultaneously, with fluphenazine being formed as a free base in a certain equilibrium. Advantageous is an at least equimolar ratio of Eudragit E100 and fluphenazine dihydrochloride, i.e. of amounts by weight having the same equivalent weight calculated as potassium hydroxide.

[2] = In vitro skin permeation through human epidermis (modified Franz cell, HPLC); format: in vitro ADME; conditions: 32° C., Oppanol-based matrix with Eudragit E100 and oleic acid, n=3
Protocol: Skin permeability was examined in vitro using full thickness cow udder skin and human epidermis, the latter having been separated from human full-thickness skin by heat separation.
The tests were carried out at 32° C. in a suitable permeation device (modified Franz cell), and fluphenazine was measured in the resultant samples using a suitable HPLC method. All indicated values are based on n=3 samples.

[3] = in vivo; cited from earlier work

solubility in Durotak 387-2051 ([1]; with addition of Eudragit E100) | solubility in Durotak 387-2287 ([1]; with addition of Eudragit E100) | solubility in poly(meth)acrylate adhesive polymers or the organic solvents required for processing ([1]; without Eudragit E100, result in words) | maximum flow rate of fluphenazine base [2] [μg/h·cm^2] | Structure (SMILES) | half-life in blood plasma [3] [h]
at least 15 %-wt. | at least 10 %-wt. | almost insoluble |  | OCCN1CCN(CCCN2c3ccccc3Sc3ccc(C(F)(F)F)cc32)CC1 [fluphenazine dihydrochloride] | 
 |  |  | 2.9 | OCCN1CCN(CCCN2c3ccccc3Sc3ccc(C(F)(F)F)cc32)CC1 [fluphenazine] | 15
